Assay results as given in patent publication US10646440B2, “Sanguisorbigenin polymer micelle and preparative methods thereof” (SICHUAN INLU WEITE PHARMACEUTICAL TECHNOLOGY CO., LTD., priority 2016, dated 2020).

Test system: KM-mice given cyclophosphamide (bone marrow suppression)
Experiment: Pharmacodynamic experiment: cyclophosphamide-induced bone marrow suppression, peripheral blood counts
Type: in vivo
[1] = cyclophosphamide 120 mg/kg i.p. day 1, 2.5 mg/kg for 6 days, blood on day 7, mean ± s

SMILES: CC1CC[C@]2(C(=O)O)CC[C@]3(C)C(=CCC4[C@@]5(C)CCC(O)C(C)(C)C5CC[C@]43C)C2[C@]1(C)O (stereo partly drawn) [Sanguisorbigenin, 3β,19β-dihydroxyurs-12-en-28-oic acid]
- numbers of NEUT and HGB in peripheral blood compared with model group (2.5 mg/kg, P<0.05): did not show significant difference
- numbers of WBC, RBC, and PLT in peripheral blood compared with model group (2.5 mg/kg, P<0.05): did not show significant difference
- HGB in peripheral blood [1]: 45.47 ± 8.39 ^ g/L
- NEUT in peripheral blood [1]: 2.56 ± 0.13 ×10^9
- PLT in peripheral blood [1]: 231.16 ± 15.27 ×10^9
- RBC in peripheral blood [1]: 3.15 ± 0.19 ×10^12
- WBC in peripheral blood [1]: 2.79 ± 0.26 ×10^9
